Patent publication US20240360177A1, “PEPTIDES WITH ANTIMICROBIAL ACTIVITIES” (priority 2021, published 2024)
Values after ≈ are worked out from the molar mass of the structure shown. Read-outs that look alike come from different tables or passages of the source. Starred links: 1 amine or outer side, 2 acyl side, 3 side chain; linkers in the order of their positions; H or OH if unused. Non-standard residues stand in square brackets, D forms with d. Residues, ends and D or L forms follow the SMILES beside them. NH(CH2)9CO = O=C(CCCCCCCCCN[*:1])[*:2]; Aoc = NCCCCCCCC(=O)O

Tests used:
[1] = system: Epidermophyton floccosum ATCC 52066
[2] = system: C. gattii; details: 72 h
[3] = system: Mycobacterium smegmatis ATCC 700084; format: cell-based; details: ATCC 700084, 48 h
[4] = system: Escherichia coli ATCC 25922; format: cell-based
[5] = system: Salmonella senftenberg CDC 127; format: cell-based
[6] = system: Microsporum gypseum ATCC 14683
[7] = system: Trichophyton rubrum ATCC MYA-4438
[8] = system: C. neoformans; details: 72 h
[9] = in vitro; details: human
[10] = system: C. auris; details: 24 h
[11] = system: Klebsiella pneumoniae ATCC 13883; format: cell-based
[12] = system: C. dubliniensis; details: 24 h
[13] = system: Mycobacterium fortuitum ATCC 110; assay: Antibacterial broth microdilution MIC, Mycobacterium fortuitum; format: cell-based; details: 48 hrs
[14] = system: Staphylococcus aureus ATCC 29213; format: cell-based
[15] = system: Pseudomonas aeruginosa ATCC 27853; format: cell-based
[16] = system: C. albicans; details: 24 h
[17] = system: Fusarium spp.; details: 48 h
[18] = system: C. glabrata; details: 24 h
[19] = system: Shigella sonnei MMX 10772; assay: Antibacterial broth microdilution MIC, Shigella sonnei; format: cell-based; details: CAMHB
[20] = system: C. tropicalis; details: 24 h
[21] = system: C. krusei; details: 24 h
[22] = system: C. parapsilosis; details: 24 h
[23] = system: Candida spp.
[24] = Subacute toxicity in CD-1 mice; format: in vivo; details: daily IP for 7 days
Description: In the subacute toxicity study, groups of CD-1 male or female mice were administered seven consecutive daily intraperitoneal doses (n=3 per dose) of the peptides (SEQ ID NO: 7, SEQ ID NO: 29, SEQ ID NO: 53) dissolved in normal saline for injection. Each peptide was evaluated at 2 to 3 dose levels ranging from 2.5 to 7.5 mg/kg/day. Mice were weighed at least once daily and observed at least twice daily for any abnormal findings and determination of overall health. At 24 hrs after the last dose, mice were humanely euthanized, with blood collected through cardiac puncture into K2EDTA microtainers to assess hematological parameters. All three peptides were tolerated at the highest dose evaluated (7.5 mg/kg/day) for 7 days.

[25] = system: Filamentous Fungi
[26] = system: Coccidioides species; details: N = 10 strains; 48-72 hrs; >50% inhibition
[27] = system: Scedosporium spp.; details: 72 h
[28] = in vitro; details: human, human serum, full strength
[29] = system: Cryptococcus spp.
[30] = Acute toxicity in CD-1 mice; details: both sexes, mouse, in vivo
Description: Acute toxicity and subacute toxicity of ACPs were tested in CD-1 mice. In the acute toxicity study, groups of CD-1 male or female mice were administered single intravenous or intraperitoneal escalating doses (n=2-3 per dose) of the peptides dissolved in normal saline for injection or in phosphate buffered saline. The intravenous dose was administered via tail vein with a slow push over 15-20 seconds. Doses were escalated based on tolerability.

[31] = system: Lomentospora prolificans
[32] = mice
[33] = EC50 cytotoxicity in HepG2, intracellular ATP assay

SMILES | MIC Epidermophyton floccosum [1] [µg/mL] | MIC C. gattii [2] [µg/mL] | MIC Mycobacterium smegmatis [3] [µg/mL] | MIC Escherichia coli [4] [µg/mL] | MIC Salmonella senftenberg [5] [µg/mL] | MIC Microsporum gypseum [6] [µg/mL] | MIC Trichophyton rubrum [7] [µg/mL] | MIC C. neoformans [8] [µg/mL] | EC50 [9, 33] [µg/mL] | MIC C. auris [10] [µg/mL] | MIC Klebsiella pneumoniae [11] [µg/mL] | MIC C. dubliniensis [12] [µg/mL] | MIC Mycobacterium fortuitum [13] [µg/mL] | MIC Staphylococcus aureus [14] [µg/mL] | MIC C. albicans [16] [µg/mL] | MIC Range Fusarium spp. [17] [µg/mL] | MIC C. glabrata [18] [µg/mL] | MIC C. tropicalis [20] [µg/mL] | MIC C. krusei [21] [µg/mL] | MIC C. parapsilosis [22] [µg/mL] | further results
N=C(N)NCCC[C@@H](N)C(=O)N[C@@H](CCCNC(=N)N)C(=O)N[C@H](CCCNC(=N)N)C(=O)NCCCCCCCCCC(=O)N[C@H](CCCNC(=N)N)C(=O)N[C@@H](CCCNC(=N)N)C(=O)N[C@H](CCCNC(=N)N)C(=O)NCCCCCCCC(=O)N[C@H](CCCNC(=N)N)C(=O)N[C@@H](CCCNC(=N)N)C(=O)N[C@H](CCCNC(=N)N)C(=O)N[C@@H](CCCNC(=N)N)C(=O)NCCCCCCCC(=O)N[C@H](CCCNC(=N)N)C(=O)N[C@@H](CCCNC(=N)N)C(=O)N[C@H](CCCNC(=N)N)C(=O)N[C@@H](CCCNC(=N)N)C(=O)NCCCCCCCC(=O)O [SEQ ID NO: 34, rRr-(Ada)-rRr-(Aoa)-rRrR-(Aoa)-rRrR-Aoa] (H-[dR]R[dR][NH(CH2)9CO][dR]R[dR][Aoc][dR]R[dR]R[Aoc][dR]R[dR]R[Aoc]-OH) | 8 (≈ 2.86 µM) | 0.5 (≈ 0.179 µM) | 1 (≈ 0.357 µM) | 4 (≈ 1.43 µM) | 8 (≈ 2.86 µM) | 32 (≈ 11.4 µM) | 4 (≈ 1.43 µM) | 0.5 (≈ 0.179 µM) | 162 (≈ 57.9 µM) | 0.5 (≈ 0.179 µM) | 8 (≈ 2.86 µM) | 0.5 (≈ 0.179 µM) | 2 (≈ 0.715 µM) | 16 (≈ 5.72 µM) | 2 (≈ 0.715 µM) | 0.25 to 2 | 8 (≈ 2.86 µM) | 0.5 (≈ 0.179 µM) | 1 (≈ 0.357 µM) | 0.5 (≈ 0.179 µM) | MIC Pseudomonas aeruginosa [15]: 16 µg/mL (≈ 5.72 µM); MIC Shigella sonnei [19]: 4 µg/mL (≈ 1.43 µM)
N=C(N)NCCC[C@@H](N)C(=O)N[C@@H](CCCNC(=N)N)C(=O)N[C@H](CCCNC(=N)N)C(=O)NCC(=O)N[C@H](CCCNC(=N)N)C(=O)N[C@@H](CCCNC(=N)N)C(=O)N[C@H](CCCNC(=N)N)C(=O)NCC(=O)N[C@H](CCCNC(=N)N)C(=O)N[C@@H](CCCNC(=N)N)C(=O)N[C@H](CCCNC(=N)N)C(=O)N[C@@H](CCCNC(=N)N)C(=O)NCC(=O)N[C@H](CCCNC(=N)N)C(=O)N[C@@H](CCCNC(=N)N)C(=O)N[C@H](CCCNC(=N)N)C(=O)N[C@@H](CCCNC(=N)N)C(=O)N[C@@H](CS)C(=O)O [SEQ ID NO: 2, rRr-G-rRr-G-rRrR-G-rRrR-Cys] (H-[dR]R[dR]G[dR]R[dR]G[dR]R[dR]RG[dR]R[dR]RC-OH) | 4 (≈ 1.61 µM) | 0.5 (≈ 0.202 µM) | 1 (≈ 0.403 µM) | 8 (≈ 3.23 µM) | 32 (≈ 12.9 µM) | >64 | 2 (≈ 0.807 µM) | 0.5 (≈ 0.202 µM) | 40 (≈ 16.1 µM) | 2 (≈ 0.807 µM) | 64 (≈ 25.8 µM) | 0.5 (≈ 0.202 µM) | 4 (≈ 1.61 µM) | 8 (≈ 3.23 µM) | 0.5 (≈ 0.202 µM) | 0.12 to 0.25 | 0.5 (≈ 0.202 µM) | 0.25 (≈ 0.101 µM) | 0.5 (≈ 0.202 µM) | 0.25 (≈ 0.101 µM) | MIC50 against Candida spp. [23]: 0.5 µg/mL (≈ 0.202 µM); MIC90 against Candida spp. [23]: 2 µg/mL (≈ 0.807 µM); EC50 ([9]; EC50 cytotoxicity in HepG2 cells (50% cell viability)): 39.6 µg/mL (≈ 16 µM); MIC Pseudomonas aeruginosa [15]: 32 µg/mL (≈ 12.9 µM); MIC Shigella sonnei [19]: 16 µg/mL (≈ 6.45 µM)
N=C(N)NCCC[C@@H](N)C(=O)N[C@@H](CCCNC(=N)N)C(=O)N[C@H](CCCNC(=N)N)C(=O)N1CCC[C@H]1C(=O)N[C@H](CCCNC(=N)N)C(=O)N[C@@H](CCCNC(=N)N)C(=O)N[C@H](CCCNC(=N)N)C(=O)N1CCC[C@H]1C(=O)N[C@H](CCCNC(=N)N)C(=O)N[C@@H](CCCNC(=N)N)C(=O)N[C@H](CCCNC(=N)N)C(=O)N[C@@H](CCCNC(=N)N)C(=O)N1CCC[C@H]1C(=O)N[C@H](CCCNC(=N)N)C(=O)N[C@@H](CCCNC(=N)N)C(=O)N[C@H](CCCNC(=N)N)C(=O)N[C@@H](CCCNC(=N)N)C(N)=O [SEQ ID NO: 53, rRr-P-rRr-P-rRrR-P-rRrR-NH2] (H-[dR]R[dR]P[dR]R[dR]P[dR]R[dR]RP[dR]R[dR]R-NH2) |  | 0.25 (≈ 0.1 µM) |  |  |  |  |  | 0.5 (≈ 0.2 µM) | > 300 | 0.25 (≈ 0.1 µM) |  | 0.25 (≈ 0.1 µM) |  |  | 0.5 (≈ 0.2 µM) | 0.25 (≈ 0.1 µM) | 0.5 (≈ 0.2 µM) | 0.5 (≈ 0.2 µM) | 0.5 (≈ 0.2 µM) | 0.25 (≈ 0.1 µM) | Tolerated dose (highest dose evaluated) [24]: 7.5 mg/kg/day; Clinical or hematological adverse effects ([24]; up to 7.5 mg/kg/day): No significant clinical or hematological adverse effects were observed; MIC Range Filamentous Fungi [25]: 0.12 to 0.25 µg/mL; Activity at 24 h MIC50 against Candida spp. ([23]; 24 h): 0.5 µg/mL; Activity at 24 h MIC90 against Candida spp. ([23]; 24 h): 0.5 µg/mL; Activity at 48 h MIC50 against Candida spp. ([23]; 48 h): 0.5 µg/mL; Activity at 48 h MIC90 against Candida spp. ([23]; 48 h): 2 µg/mL; MIC Range Coccidioides species [26]: 0.06 to 0.25 µg/mL; MIC Range Scedosporium spp. [27]: 0.25 µg/mL (≈ 0.1 µM); remaining at 2 h, 5 μM [28]: ~100%; MIC Range Cryptococcus spp. [29]: 0.25 to 0.5 µg/mL; MTD ([30]; single IP dose, read-out: Tolerated single intraperitoneal dose): 10 to 15 mg/kg; MTD ([30]; single IV dose via tail vein, read-out: Tolerated single intravenous dose): 5 to 7.5 mg/kg; MIC Range Lomentospora prolificans [31]: 0.12 µg/mL (≈ 0.0481 µM); Kidney to Plasma Concentration Ratio Day 7 ([32]; 6 hrs post dose of 7.5 mg/kg IP once daily, Day 7, mean ± SD, n = 3): 916 ± 36; Kidney to Plasma Concentration Ratio Day 1 ([32]; 6 hrs post dose of 7.5 mg/kg IP, Day 1, mean ± SD, n = 3): 179 ± 106; Day 1 AUC ratio, kidney to plasma ([32]; IP 7.5 mg/kg, Day 1): 58.3
